Data from patent publication US8642632B2, “Selective androgen receptor modulators” (Radius Health, Inc., priority 2010, dated 2014).

Experiments:
androgen receptor = biological target: T1, androgen receptor (Rattus norvegicus, UniProt P15207); experiment: androgen receptor binding assay (fluorescence polarization, Invitrogen AR-Fluormone)
T1 construct: purchased Invitrogen, Madison, Wis
T1 sequence (P15207 651-902 limits assumed): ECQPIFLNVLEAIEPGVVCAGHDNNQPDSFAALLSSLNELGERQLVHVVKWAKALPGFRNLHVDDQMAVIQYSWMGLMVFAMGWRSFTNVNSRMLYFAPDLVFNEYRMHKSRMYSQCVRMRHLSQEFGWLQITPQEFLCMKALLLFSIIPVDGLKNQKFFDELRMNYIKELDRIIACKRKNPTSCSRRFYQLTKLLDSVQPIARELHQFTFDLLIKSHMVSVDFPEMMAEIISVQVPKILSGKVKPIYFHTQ
Experimental: The assay was performed as specified by the manufacturer (Invitrogen, Madison, Wis.). Briefly, 1 μl of 10 mM compound was added to 500 μl of AR screening buffer in a 1.5 ml eppendorf tube to make a 2×10^−5M stock. 10-fold serial dilutions of the test compounds were prepared ranging in concentration from 10^−5M to 10^−12M. Each dilution was added in triplicate to a black 384-microtiter plate. The test compounds will be diluted 2-fold in the final reaction. 2×AR-Fluormone™ complex was prepared with 2 nM Flourmone AL Green™ and 30 nM AR. 25 μl of 2× complex was aliquoted to each reaction well, such that the final reaction volume was 50 μl per well. Plate was sealed with a foil cover and incubated in the dark at room temperature for 4 h. Polarization values for each well were measured. The polarization values were plotted against the concentration of the test compound. The concentration of the test compound that results in half-maximum shift equals the IC50 of the test compound. As a control, a competition curve for R1881 (methyltrienolone) was performed for each assay. Curve Fitting was performed using GraphPad Prism® software from GraphPad™ Software Inc. Binding data are reported as a single determination if the experiment was run once only and as the average of experiments if the binding experiment was performed two or more times with that compound.
The binding data shown in table 1 (below) is from the result of a single or multiple determinations based on the same compound. Where multiple data points have been taken, the value reported is the average of the multiple determinations.

castrated rat = experiment: In vivo rat model of androgen and anabolic activity - rat Herschberger assay; conditions: 3 mg/kg orally, once daily for 4 days, compared with Sham and testosterone propionate (TP) controls
From the text: Organ and muscle weight is on Y-axis and the numbers refer to weight in milligrams. *ρ<0.05 compared to vehicle. ^ρ<0.05 compared to TP and sham.
The following is a typical procedure of the in vivo evaluation of the selective androgens of this invention. In particular, this assay looks primarily at the ability of the selective androgens of this invention to increase muscle size in an immature, castrated rat. In addition, androgenic effects are looked at primarily by weighing the prostate and seminal vesicles. Selective compounds will show a greater increase in the levator ani relative to the prostate and seminal vesicles when compared to testosterone treated, castrated animals or to intact animals that have not been treated. Immature Sprague Dawley male rats were obtained Charles River Laboratories (Stoneridge, N.Y.). All animals were maintained in a temperature and humidity controlled room with a 12 hr light: 12 hr dark cycle, with ad lib access to food (TD 291615, Teklad, Madison, Wis.) and water. Rats were anesthetized and orchidectomized (GDX) or sham surgery (SHAM) was performed. […] The prostate, seminal vesicle and levator ani and bulba cavernous (LABC) tissues were removed, weighed and recorded. Body weights were recorded for each animal at baseline and at sacrifice.

Compound: CCCc1c(N[C@@H](c2nnc(-c3ccc(C#N)cc3)o2)[C@H](C)O)ccc(C#N)c1Cl [Example 4, 2-Chloro-4-((1R,2S)-1-(5-(4-cyanophenyl)-1,3,4-oxadiazol-2-yl)-2-hydroxypropylamino)-3-propylbenzonitrile]
- IC50 (androgen receptor): 0.0003 µM

Compound: CC(C)(O)[C@@H](Nc1ccc(C#N)c(C(F)(F)F)c1)c1nnc(-c2ccc(F)cc2)o1 [Example 1, (R)-4-(1-(5-(4-fluorophenyl)-1,3,4-oxadiazol-2-yl)-2-hydroxy-2-methylpropylamino)-2-(trifluoromethyl)benzonitrile]
- IC50 (androgen receptor): > 1 µM

Compound: Cc1c(N[C@@H](c2nnc(-c3ccc(F)cc3)o2)C(C)(C)O)ccc(C#N)c1C(F)(F)F [Example 2, (R)-4-(1-(5-(4-fluorophenyl)-1,3,4-oxadiazol-2-yl)-2-hydroxy-2-methylpropylamino)-3-methyl-2-(trifluoromethyl)benzonitrile]
- IC50 (androgen receptor): 0.04 µM

Compound: Cc1c(N[C@@H](c2nnc(-c3ccc(F)cc3)o2)C(C)(C)O)ccc(C#N)c1Cl [Example 5, (R)-2-chloro-4-(1-(5-(4-fluorophenyl)-1,3,4-oxadiazol-2-yl)-2-hydroxy-2-methylpropylamino)-3-methylbenzonitrile]
- IC50 (androgen receptor): 0.006 µM
- levator ani muscle (LABC) weight (castrated rat): significantly above the non-castrated control (Sham) and testosterone propionate-treated (TP) controls

Compound: Cc1c(N[C@@H](c2nnc(-c3ccc(C#N)cc3)o2)C(C)(C)O)ccc(C#N)c1C(F)(F)F [Example 3, (R)-4-(1-(5-(4-cyanophenyl)-1,3,4-oxadiazol-2-yl)-2-hydroxy-2-methylpropylamino)-3-methyl-2-(trifluoromethyl)benzonitrile]
- IC50 (androgen receptor): 0.03 µM

Compound: Cc1c(N[C@@H](c2nnc(-c3ccc(C#N)cc3)o2)[C@H](O)C(F)(F)F)ccc(C#N)c1Cl [Example 7, 2-chloro-4-((1R,2S)-1-(5-(4-cyanophenyl)-1,3,4-oxadiazol-2-yl)-3,3,3-trifluoro-2-hydroxypropylamino)-3-methylbenzonitrile]
- IC50 (androgen receptor): 0.29 µM

Compound: Cc1c(N[C@@H](c2nnc(-c3ccc(C#N)cc3)o2)C(C)(C)O)ccc(C#N)c1Cl [Example 6, (R)-2-chloro-4-(1-(5-(4-cyanophenyl)-1,3,4-oxadiazol-2-yl)-2-hydroxy-2-methylpropylamino)-3-methylbenzonitrile]
- IC50 (androgen receptor): 0.004 µM
